# According to patent US6812237B2, “N-substituted peptidyl nitriles as cysteine cathepsin inhibitors” (Novartis AG, priority 2000, dated 2004):
# What was measured:
# [1] = target: recombinant human cathepsin B (Homo sapiens, UniProt P07858); test: in vitro cathepsin B assay; format: biochemical; details: Z-Arg-Arg-AMC substrate, pH 5.8 phosphate buffer, fluorescence at 20 minutes
# Protocol: The cathepsin inhibitory effects of the compound of the invention can be determined in vitro by measuring the inhibition of e.g. recombinant human cathepsins B, L and S. The buffer used in the assays is a 0.1 M pH 5.8 phosphate buffer containing EDTA (1.33 mM), DTT (2.7 mM) and Brij (0.03%).
# The in vitro assays are carried out as follows:
# To a microtiter well is added 100 uL of a 20 uM solution of inhibitor in assay buffer followed by 50 uL of a 6.4 mM solution of Z—Arg—Arg—AMC substrate (Peptides International) in assay buffer. After mixing, 50 uL of a 0.544 nM solution of recombinant human cathepsin B in assay buffer is added to the well, yielding a final inhibitor concentration of 10 uM. Enzyme activity is determined by measuring fluorescence of the liberated aminomethylcoumarin at […] using 380 nm excitation, at 20 minutes. % Enzyme inhibition is determined by comparison of this activity to that of a solution containing no inhibitor. Compounds are subsequently subjected to a dose response curve analysis to determine IC50 values.
melting point [°C],IC50 [1] [nM],Structure (SMILES)
86 to 88,–,"C=CCOC(=O)c1cccc(COCC(C#N)NC(=O)[C@H](Cc2cccc(C)c2)Nc2ccc(F)cc2)c1 (stereo in doubt) [Example 5, N-[2-[3-(allyloxycarbonyl)-benzyloxy]-1(S)-cyanoethyl]-3-methyl-Nα-(4-fluorophenyl)-L-phenylalaninamide]"
135 to 137,~100,"Cc1cccc(C[C@H](Nc2ccccc2)C(=O)NC(C#N)COCc2cccc(C(=O)O)c2)c1 (stereo in doubt) [Example 6, N-[2-(3-Carboxy-benzyloxy)-1(S)-cyanoethyl]-3-methyl-Nα-phenyl-L-phenylalaninamide]"
80 to 83,–,"N#C[C@@H](COCc1cccc(C(=O)O)c1)NC(=O)C1(Nc2ccccc2)CCCCC1 [Example 14 (a), N-[2-(3-carboxybenzyloxy)-1-(S)-cyanoethyl]-1-(phenylamino)-cyclohexanecarboxamide]"
169 to 170,–,"N#CCNC(=O)CN(c1ccccc1)C1Cc2ccccc2C1 [Example 14 (b), N-(cyanomethyl)-Nα-(phenyl)-indan-2-yl-glycine-amide]"
